From patent publication US10227342B2 (ARIAD PHARMACEUTICALS, INC., priority 2014, dated 2019) come the findings set out here.

Bounds are passed on as bounds.

What is called IC50 is the concentration needed to halve the response being measured.

Holding throughout (assay type): cell-based
Experiment [1] has as its target human EGFR exon 20 insertion ASV (V769_D770insASV) (Homo sapiens (Human), UniProt P00533, INS769ASV). Description: Ba/F3-EGFR-Exon20-ASV cell anti-proliferative assay (CellTiter 96 MTS, 72 h).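 Also: Ba/F3 cells bearing the EGFR exon 20 ASV insertion, a line able to proliferate without IL-3.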 The following applies: Ba/F3-EGFR-Exon20-ASV cells.
Method: (§1) Ba/F3 cells expressing EGFR exon 20 insertions (named Ba/F3-EGFR-Exon20-NPG or Ba/F3-EGFR-Exon20-ASV) can proliferate in the absence of IL-3. The anti-proliferative activity of compounds were determined as follows: BaF3-EGFR-Exon20 cells (NPG or ASV) seeded in 96 well plates (2500 cells/well) were treated with test compound (dissolved in DMSO) at a series of concentrations (4-fold dilution, top concentration: 10,000 nM). The plates were incubated for 72 h in a 37° C. incubator with 5% CO2, and the number of viable cells in each well were measured indirectly by CellTiter 96® Aqueous One Solution Cell Proliferation Assay (Promega) This assay is a colorimetric method for determining the number of viable cells through measurement of their metabolic activity by detection of enzymatic conversion of tetrazolium salts into blue formazan derivatives. Reagent (20 μL) was added into each well, and the plates were returned to the incubator for 2 h. The absorbance in each well was then measured at 490 nm using an Envision plate reader (Perkin Elmer).
The target of experiment [2] is human EGFR exon 20 insertion NPG (H773_V774insNPG) (Homo sapiens, UniProt P00533, INS773NPG, cells depend on it). Briefly: Ba/F3-EGFR-Exon20-NPG cell anti-proliferative assay (CellTiter 96 MTS, 72 h). Particulars: read-out: EGFR exon 20 NPG insertion IC50.
Method: as §1
In experiment [3] the target is human EGFR E746-A750 deletion and T790M Mutation (DT) (Homo sapiens (Human), UniProt P00533, DEL746-750/T790M). Description: Ba/F3-EGFR-Del/T790M cell anti-proliferative assay (CellTiter 96 MTS, 72 h). The following applies: Ba/F3-EGFR-Del/T790M cells; for IC50: read-out: EGFR exon 19 deletion and T790M mutation IC50.
Method: An expression vector, pLVX-IRES puro (Clontech) coding for human EGFR E746-A750 deletion and T790M Mutation, was transfected into HEK293 cells by the Trans-Lentiviral ORF Packaging System (Thermo Scientific), to produce virus encoding EGFR exon 19 deletion and T790M mutations. […] Ba/F3 cells expressing EGFR E746-A750 deletion and T790M Mutation (named Ba/F3-EGFR-Del/T790M) can proliferate in the absence of IL-3. The anti-proliferative activity of compounds was determined as follows: BaF3-EGFR-Del/T790M cells seeded in 96 well plates (2500 cells/well) were treated with test compound (dissolved in DMSO) at a series of concentrations (4-fold dilution, top concentration: 10,000 nM). The plates were incubated for 72 h in a 37° C. incubator with 5% CO2, and the number of viable cells in each well were measured indirectly by CellTiter 96® Aqueous One Solution Cell Proliferation Assay (Promega; this assay is a colorimetric method for determining the number of viable cells through measurement of their metabolic activity by detection of enzymatic conversion of tetrazolium salts into blue formazan derivatives). Reagent (20 μL) was added into each well, and the plates were returned to the incubator for 2 h. The absorbance in each well was then measured at 490 nm using an Envision plate reader (Perkin Elmer).
For experiment [4], the target named is Her2 exon 20 YVMA insertion (A775_G776ins YVMA) (Homo sapiens (Human), UniProt P04626, INS775YVMA). Briefly: Ba/F3-Her2 Exon20 YVMA cell anti-proliferative assay (CellTiter 96 MTS, 72 h). The following applies: Ba/F3-Her2 Exon20 YVMA cells. The text has this:
Ba/F3 cells expressing Her2 Exon20 YVMA insertions (named Ba/F3-Her2 Exon20 YVMA) can proliferate in the absence of IL-3.

human EGFR E746-A750 deletion and T790M Mutation (DT), sequence (P00533 other isoform, or with tags, fused parts or gaps T790M/del E746-A750): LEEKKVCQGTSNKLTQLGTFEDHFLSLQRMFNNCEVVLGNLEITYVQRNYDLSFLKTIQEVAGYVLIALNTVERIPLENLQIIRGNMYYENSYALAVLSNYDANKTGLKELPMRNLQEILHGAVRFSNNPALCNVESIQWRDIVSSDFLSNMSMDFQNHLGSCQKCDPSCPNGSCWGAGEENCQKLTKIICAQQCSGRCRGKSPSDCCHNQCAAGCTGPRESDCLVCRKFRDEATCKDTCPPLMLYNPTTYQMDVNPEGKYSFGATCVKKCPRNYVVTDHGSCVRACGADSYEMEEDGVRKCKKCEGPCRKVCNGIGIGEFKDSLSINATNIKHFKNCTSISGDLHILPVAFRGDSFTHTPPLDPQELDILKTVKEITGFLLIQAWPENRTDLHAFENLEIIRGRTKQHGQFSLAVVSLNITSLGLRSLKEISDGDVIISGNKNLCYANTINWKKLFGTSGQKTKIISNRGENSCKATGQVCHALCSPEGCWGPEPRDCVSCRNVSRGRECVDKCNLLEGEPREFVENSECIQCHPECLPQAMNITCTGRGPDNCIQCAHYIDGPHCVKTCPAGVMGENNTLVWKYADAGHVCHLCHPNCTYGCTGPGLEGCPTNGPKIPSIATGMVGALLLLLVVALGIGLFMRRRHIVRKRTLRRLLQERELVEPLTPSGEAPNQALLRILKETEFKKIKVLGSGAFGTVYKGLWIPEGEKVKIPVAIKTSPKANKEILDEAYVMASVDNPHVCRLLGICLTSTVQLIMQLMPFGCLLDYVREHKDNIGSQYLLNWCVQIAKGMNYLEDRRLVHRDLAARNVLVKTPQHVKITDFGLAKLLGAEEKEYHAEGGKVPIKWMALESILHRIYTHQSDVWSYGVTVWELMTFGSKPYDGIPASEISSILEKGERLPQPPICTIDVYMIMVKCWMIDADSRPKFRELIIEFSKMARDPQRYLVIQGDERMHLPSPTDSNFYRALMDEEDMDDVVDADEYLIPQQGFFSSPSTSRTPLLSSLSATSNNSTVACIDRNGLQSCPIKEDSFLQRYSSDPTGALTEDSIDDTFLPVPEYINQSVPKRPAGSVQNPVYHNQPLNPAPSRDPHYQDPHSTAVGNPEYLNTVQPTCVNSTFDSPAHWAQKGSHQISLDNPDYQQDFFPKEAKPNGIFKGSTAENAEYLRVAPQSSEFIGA
Her2 exon 20 YVMA insertion (A775_G776ins YVMA), sequence (P04626 other isoform, or with tags, fused parts or gaps ins YVMA behind 775): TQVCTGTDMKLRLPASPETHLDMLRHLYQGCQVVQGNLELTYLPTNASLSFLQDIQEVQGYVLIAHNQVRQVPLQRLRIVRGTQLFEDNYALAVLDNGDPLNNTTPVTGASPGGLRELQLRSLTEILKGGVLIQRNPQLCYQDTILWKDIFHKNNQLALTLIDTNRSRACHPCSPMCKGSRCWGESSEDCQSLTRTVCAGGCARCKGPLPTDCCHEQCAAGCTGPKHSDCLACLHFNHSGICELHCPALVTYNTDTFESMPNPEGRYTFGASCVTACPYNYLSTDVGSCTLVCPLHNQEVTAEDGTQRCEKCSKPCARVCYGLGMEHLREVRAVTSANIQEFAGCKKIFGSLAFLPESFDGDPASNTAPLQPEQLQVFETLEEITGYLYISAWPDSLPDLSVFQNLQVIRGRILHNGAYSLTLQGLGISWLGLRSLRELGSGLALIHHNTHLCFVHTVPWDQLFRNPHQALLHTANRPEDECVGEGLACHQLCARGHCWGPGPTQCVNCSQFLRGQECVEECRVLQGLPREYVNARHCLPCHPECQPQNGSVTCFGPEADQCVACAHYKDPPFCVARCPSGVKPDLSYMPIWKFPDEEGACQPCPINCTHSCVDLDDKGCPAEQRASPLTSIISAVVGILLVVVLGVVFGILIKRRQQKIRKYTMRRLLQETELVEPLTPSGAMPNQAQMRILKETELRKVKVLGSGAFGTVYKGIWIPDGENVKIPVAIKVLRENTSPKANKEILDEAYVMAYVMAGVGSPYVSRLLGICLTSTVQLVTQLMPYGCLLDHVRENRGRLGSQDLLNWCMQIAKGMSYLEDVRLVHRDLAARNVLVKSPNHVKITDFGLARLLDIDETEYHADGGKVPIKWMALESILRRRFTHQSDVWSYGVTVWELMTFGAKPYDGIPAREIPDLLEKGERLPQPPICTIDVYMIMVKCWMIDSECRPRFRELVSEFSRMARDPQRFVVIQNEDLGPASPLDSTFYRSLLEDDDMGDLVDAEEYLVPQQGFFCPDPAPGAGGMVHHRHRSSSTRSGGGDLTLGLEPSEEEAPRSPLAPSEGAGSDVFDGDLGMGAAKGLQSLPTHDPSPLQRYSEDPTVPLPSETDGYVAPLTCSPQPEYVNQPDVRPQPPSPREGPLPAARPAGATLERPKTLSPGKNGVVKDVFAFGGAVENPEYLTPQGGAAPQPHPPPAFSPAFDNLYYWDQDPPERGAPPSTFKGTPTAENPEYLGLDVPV
human EGFR exon 20 insertion ASV (V769_D770insASV), sequence (P00533 other isoform, or with tags, fused parts or gaps ins ASV behind 769): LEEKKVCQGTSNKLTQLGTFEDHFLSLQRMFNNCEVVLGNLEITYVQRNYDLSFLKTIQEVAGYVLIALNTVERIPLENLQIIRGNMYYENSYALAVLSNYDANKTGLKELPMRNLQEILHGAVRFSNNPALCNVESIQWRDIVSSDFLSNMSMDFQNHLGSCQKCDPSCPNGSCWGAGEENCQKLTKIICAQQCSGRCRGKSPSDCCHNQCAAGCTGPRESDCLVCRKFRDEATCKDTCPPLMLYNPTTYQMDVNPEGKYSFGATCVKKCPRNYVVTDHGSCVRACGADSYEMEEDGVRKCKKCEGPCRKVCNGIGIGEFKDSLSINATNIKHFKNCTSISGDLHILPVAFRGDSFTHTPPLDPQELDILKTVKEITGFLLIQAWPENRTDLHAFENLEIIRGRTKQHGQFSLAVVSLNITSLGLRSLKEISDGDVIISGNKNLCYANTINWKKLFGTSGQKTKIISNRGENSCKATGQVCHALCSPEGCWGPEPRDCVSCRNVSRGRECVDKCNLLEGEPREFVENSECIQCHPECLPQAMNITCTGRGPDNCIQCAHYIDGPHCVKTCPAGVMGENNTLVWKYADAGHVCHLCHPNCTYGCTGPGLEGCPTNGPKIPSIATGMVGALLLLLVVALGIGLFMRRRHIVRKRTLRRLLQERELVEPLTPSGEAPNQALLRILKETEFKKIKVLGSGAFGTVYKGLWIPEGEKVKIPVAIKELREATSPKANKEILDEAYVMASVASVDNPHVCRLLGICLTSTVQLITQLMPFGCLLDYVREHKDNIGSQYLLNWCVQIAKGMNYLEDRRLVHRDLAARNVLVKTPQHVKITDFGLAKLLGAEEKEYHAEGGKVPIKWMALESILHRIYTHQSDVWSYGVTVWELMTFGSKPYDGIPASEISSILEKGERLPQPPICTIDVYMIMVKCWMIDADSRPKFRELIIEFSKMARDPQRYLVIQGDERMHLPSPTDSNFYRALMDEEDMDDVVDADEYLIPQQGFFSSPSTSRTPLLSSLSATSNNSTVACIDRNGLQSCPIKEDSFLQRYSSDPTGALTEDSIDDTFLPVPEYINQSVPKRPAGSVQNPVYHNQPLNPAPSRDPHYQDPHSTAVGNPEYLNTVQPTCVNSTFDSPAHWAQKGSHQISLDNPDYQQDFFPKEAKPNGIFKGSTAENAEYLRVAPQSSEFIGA
human EGFR exon 20 insertion NPG (H773_V774insNPG), sequence (P00533 with tags, fused parts or gaps INS773NPG limits assumed): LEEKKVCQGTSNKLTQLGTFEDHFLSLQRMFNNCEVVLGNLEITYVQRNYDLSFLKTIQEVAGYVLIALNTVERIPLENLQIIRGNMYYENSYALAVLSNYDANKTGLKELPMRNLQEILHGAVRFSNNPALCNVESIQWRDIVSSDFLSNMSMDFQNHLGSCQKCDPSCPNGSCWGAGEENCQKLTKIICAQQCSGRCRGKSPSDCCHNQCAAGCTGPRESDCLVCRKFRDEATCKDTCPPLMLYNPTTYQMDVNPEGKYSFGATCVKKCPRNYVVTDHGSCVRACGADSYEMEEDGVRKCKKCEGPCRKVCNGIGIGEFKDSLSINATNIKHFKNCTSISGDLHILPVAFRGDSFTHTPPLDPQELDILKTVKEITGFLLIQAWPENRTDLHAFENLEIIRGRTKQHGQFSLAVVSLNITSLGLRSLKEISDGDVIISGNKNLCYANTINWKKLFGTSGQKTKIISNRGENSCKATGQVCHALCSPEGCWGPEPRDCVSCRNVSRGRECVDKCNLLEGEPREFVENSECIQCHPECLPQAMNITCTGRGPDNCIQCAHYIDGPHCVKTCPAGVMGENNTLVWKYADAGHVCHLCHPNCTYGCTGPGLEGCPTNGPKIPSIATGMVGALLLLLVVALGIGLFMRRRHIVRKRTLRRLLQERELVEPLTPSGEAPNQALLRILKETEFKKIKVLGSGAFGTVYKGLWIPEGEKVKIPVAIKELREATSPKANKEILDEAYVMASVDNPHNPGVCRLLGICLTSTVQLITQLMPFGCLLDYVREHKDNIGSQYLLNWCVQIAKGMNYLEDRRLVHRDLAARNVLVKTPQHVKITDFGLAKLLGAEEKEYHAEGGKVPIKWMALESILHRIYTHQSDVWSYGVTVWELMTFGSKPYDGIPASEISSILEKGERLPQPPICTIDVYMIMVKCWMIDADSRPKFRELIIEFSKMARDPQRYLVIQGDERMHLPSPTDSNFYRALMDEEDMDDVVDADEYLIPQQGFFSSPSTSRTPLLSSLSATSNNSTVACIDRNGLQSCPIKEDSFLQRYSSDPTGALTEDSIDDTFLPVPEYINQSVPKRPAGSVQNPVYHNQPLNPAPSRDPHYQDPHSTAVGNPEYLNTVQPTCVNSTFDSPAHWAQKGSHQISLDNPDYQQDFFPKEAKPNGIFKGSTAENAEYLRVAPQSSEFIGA

Take `C=CC(=O)Nc1cc(Nc2ncc(Cl)c(-c3cnn4ccccc34)n2)c(OC)cc1N1CCC(N(C)C)C1` (stereo not drawn) [Example 55, N-(5-((5-chloro-4-(pyrazolo[1,5-a]pyridin-3-yl)pyrimidin-2-yl)amino)-2-(3-(dimethylamino)pyrrolidin-1-yl)-4-methoxyphenyl)acrylamide]: the half-inhibitory concentration (IC50) in experiment [1] is more than 1000 nM; in experiment [2], 100 to 500 nM; in experiment [3] it was less than 100 nM; in experiment [4], more than 1000 nM.

On to `C=CC(=O)Nc1cc(Nc2nccc(-c3cn(C)c4cc(C(=O)OC)ccc34)n2)c(OC)cc1N(C)CCN(C)C` [Example 82, methyl 3-(2-((5-acrylamido-4-((2-(dimethylamino)ethyl)(methyl)amino)-2-methoxyphenyl)amino)pyrimidin-4-yl)-1-methyl-1H-indole-6-carboxylate], for which the IC50 in experiment [1] is 100 to 500 nM; in experiment [2], less than 100 nM; in experiment [3], less than 100 nM; in experiment [4] it was 100 to 500 nM.

In the case of `C=CC(=O)Nc1cc(Nc2ncc(C(=O)OC(C)C)c(-c3cn(C(C)=O)c4ccccc34)n2)c(OC)cc1N(C)CCN(C)C` [Example 78, isopropyl 4-(1-acetyl-1H-indol-3-yl)-2-((5-acrylamido-4-((2-(dimethylamino)ethyl)(methyl)amino)-2-methoxyphenyl)amino)pyrimidine-5-carboxylate], the half-inhibitory concentration (IC50) in experiment [1], in experiment [2], in experiment [3] and in experiment [4] was less than 100 nM in each case.

As for `C=CC(=O)Nc1cc(Nc2ncc(C(=O)OC(C)C)c(-c3cn(C4CC4)c4ccccc34)n2)c(OC)cc1N(C)CCN(C)C` [Example 79, isopropyl 2-((5-acrylamido-4-((2-(dimethylamino)ethyl)(methyl)amino)-2-methoxyphenyl)amino)-4-(1-cyclopropyl-1H-indol-3-yl)pyrimidine-5-carboxylate], the concentration for half-maximal inhibition (IC50) was less than 100 nM in experiment [1], less than 100 nM in experiment [2], less than 100 nM in experiment [3] and 100 to 500 nM in experiment [4].

As for `C=CC(=O)Nc1cc(Nc2ncc(C(=O)OC)c(-c3cn(N(C)C)c4ccccc34)n2)c(OC)cc1N(C)CCN(C)C` [Example 76, methyl 2-((5-acrylamido-4-((2-(dimethylamino)ethyl)(methyl)amino)-2-methoxyphenyl)amino)-4-(1-(dimethylamino)-1H-indol-3-yl)pyrimidine-5-carboxylate], the IC50 in experiment [1], in experiment [2], in experiment [3] and in experiment [4] was less than 100 nM each time.

Regarding `C=CC(=O)Nc1ccc(OC)c(Nc2ncc(C#N)c(-c3cn(C)c4cc(OCCC5CCCN5C)ccc34)n2)c1` (stereo not drawn) [Example 23, N-(3-((5-cyano-4-(1-methyl-6-(2-(1-methylpyrrolidin-2-yl)ethoxy)-1H-indol-3-yl)pyrimidin-2-yl)amino)-4-methoxyphenyl)acrylamide], the IC50 in experiment [1] was 100 to 500 nM; in experiment [2], less than 100 nM; in experiment [3] it was less than 100 nM; in experiment [4] it was 500 to 1000 nM.

As to `C=CC(=O)Nc1cc(Nc2ncc(C(=O)OCC(C)C)c(-c3cn(C)c4ccccc34)n2)c(OC)cc1N(C)CCN(C)C` [Example 28, isobutyl 2-((5-acrylamido-4-((2-(dimethylamino)ethyl)(methyl)amino)-2-methoxyphenyl)amino)-4-(1-methyl-1H-indol-3-yl)pyrimidine-5-carboxylate], the half-inhibitory concentration (IC50) in experiment [1] was less than 100 nM; in experiment [2], less than 100 nM; in experiment [3] it was less than 100 nM; in experiment [4] it was 100 to 500 nM.

For the molecule `C=CC(=O)Nc1cc(Nc2ncc(Cl)c(-c3cnn4ccccc34)n2)c(OC)cc1OCCN(C)C` [Example 51, N-(5-((5-chloro-4-(pyrazolo[1,5-a]pyridin-3-yl)pyrimidin-2-yl)amino)-2-(2-(dimethylamino)ethoxy)-4-methoxyphenyl)acrylamide], the IC50 in experiment [1] is 100 to 500 nM; in experiment [2], less than 100 nM; in experiment [3], less than 100 nM; in experiment [4], 100 to 500 nM.

`C=CC(=O)Nc1cc(Nc2ncc(C(=O)OC(C)C)c(-c3coc4ccccc34)n2)c(OC)cc1N(C)C[C@H]1CCCN1C` [Example 62, isopropyl (R)-2-((5-acrylamido-2-methoxy-4-(methyl((1-methylpyrrolidin-2-yl)methyl)amino)phenyl)amino)-4-(benzofuran-3-yl)pyrimidine-5-carboxylate]: the IC50 in experiment [1] was less than 100 nM; in experiment [2] it was less than 100 nM; in experiment [3], less than 100 nM; in experiment [4], 100 to 500 nM.

Turning to `C=CC(=O)Nc1ccc(OC)c(Nc2ncc(C#N)c(-c3cn(C)c4cc(OCC5CCCN5C)ccc34)n2)c1` (stereo not drawn) [Example 21, N-(3-((5-cyano-4-(1-methyl-6-((1-methylpyrrolidin-2-yl)methoxy)-1H-indol-3-yl)pyrimidin-2-yl)amino)-4-methoxyphenyl)acrylamide], the concentration for half-maximal inhibition (IC50) in experiment [1] is 500 to 1000 nM; in experiment [2], less than 100 nM; in experiment [3], less than 100 nM; in experiment [4], 500 to 1000 nM.

In the case of `C=CC(=O)Nc1cc(Nc2ncc(NC(=O)CC)c(-c3nn(C)c4ccccc34)n2)c(OC)cc1N(C)CCN(C)C` [Example 60, N-(2-((2-(dimethylamino)ethyl)(methyl)amino)-4-methoxy-5-((4-(1-methyl-1H-indazol-3-yl)-5-propionamidopyrimidin-2-yl)amino)phenyl)acrylamide], the half-maximal inhibitory concentration (IC50) in experiment [1] was less than 100 nM; in experiment [2] it was less than 100 nM; in experiment [3] it was less than 100 nM; in experiment [4], more than 1000 nM.

As for `C=CC(=O)Nc1cc(Nc2ncnc(-c3c(C4=CCOCC4)n(C)c4ccccc34)n2)c(OC)cc1N(C)CCN(C)C` [Example 2, N-(5-((4-(2-(3,6-dihydro-2H-pyran-4-yl)-1-methyl-1H-indol-3-yl)-1,3,5-triazin-2-yl)amino)-2-((2-(dimethylamino)ethyl)(methyl)amino)-4-methoxyphenyl)acrylamide], the IC50 is less than 100 nM in experiment [1], less than 100 nM in experiment [2], less than 100 nM in experiment [3] and 100 to 500 nM in experiment [4].

For the molecule `C=CC(=O)Nc1cc(Nc2ncc(C(=O)OC3COC3)c(-c3cn(C)c4ccccc34)n2)c(OC)cc1N(C)CCN(C)C` [Example 11, oxetan-3-yl 2-((5-acrylamido-4-((2-(dimethylamino)ethyl)(methyl)amino)-2-methoxyphenyl)amino)-4-(1-methyl-1H-indol-3-yl)pyrimidine-5-carboxylate], the 50% inhibitory concentration (IC50) in experiment [1], in experiment [2], in experiment [3] and in experiment [4] was less than 100 nM in each case.

As to `C=CC(=O)Nc1cc(Nc2ncc(NC(=O)C(C)(C)C)c(-c3cn(C)c4ccccc34)n2)c(OC)cc1N(C)CCN(C)C` [Example 41, N-(2-((2-(dimethylamino)ethyl)-(methyl)amino)-4-methoxy-5-((4-(1-methyl-1H-indol-3-yl)-5-pivalamidopyrimidin-2-yl)amino)phenyl)acrylamide], the half-maximal inhibitory concentration (IC50) was 500 to 1000 nM in experiment [1], 100 to 500 nM in experiment [2], more than 1000 nM in experiment [3] and more than 1000 nM in experiment [4].

For the molecule `C=CC(=O)Nc1cc(Nc2ncc(C(=O)OC(C)C)c(-c3c[nH]c4ccccc34)n2)c(OC)cc1N(C)C[C@H]1CCCN1C` [Example 64, isopropyl (R)-2-((5-acrylamido-2-methoxy-4-(methyl((1-methylpyrrolidin-2-yl)methyl)amino)phenyl)amino)-4-(1H-indol-3-yl)pyrimidine-5-carboxylate], the IC50 in experiment [1], in experiment [2], in experiment [3] and in experiment [4] was less than 100 nM each time.

As to `C=CC(=O)Nc1cc(Nc2ncc(C(=O)OC)c(-c3cn(C)c4ccccc34)n2)c(OC)cc1C#CCN(C)C` [Example 68, methyl 2-((5-acrylamido-4-(3-(dimethylamino)prop-1-yn-1-yl)-2-methoxyphenyl)amino)-4-(1-methyl-1H-indol-3-yl)pyrimidine-5-carboxylate], the IC50 in experiment [1] was 100 to 500 nM; in experiment [2], less than 100 nM; in experiment [3], less than 100 nM; in experiment [4], 500 to 1000 nM.

Consider `C=CC(=O)Nc1cc(Nc2ncc(N(C)C(=O)C(C)C)c(-c3cn(C)c4ccccc34)n2)c(OC)cc1N(C)CCN(C)C` [Example 40, N-(2-((2-(dimethylamino)ethyl)-(methyl)-amino)-4-methoxy-5-((4-(1-methyl-1H-indol-3-yl)-5-(N-methylisobutyramido)-pyrimidin-2-yl)amino)phenyl)acrylamide], for which the results for the half-maximal inhibitory concentration (IC50) in experiment [1], in experiment [2] and in experiment [4] were 100 to 500 nM, 100 to 500 nM and more than 1000 nM, respectively. In addition, in experiment [3], the “EGFR exon 19 deletion and T790M mutation IC50” value is “C (Group C compounds have an IC50 value for the indicated mutant between greater than about 500 to about 1 μM)”.

As to `C=CC(=O)Nc1cc(Nc2ncnc(-c3c(C4CCOCC4)n(C)c4ccccc34)n2)c(OC)cc1N(C)CCN(C)C` [Example 4, N-(2-((2-(dimethylamino)ethyl)(methyl)amino)-4-methoxy-5-((4-(1-methyl-2-(tetrahydro-2H-pyran-4-yl)-1H-indol-3-yl)-1,3,5-triazin-2-yl)amino)phenyl)acrylamide], the IC50 in experiment [1] is 100 to 500 nM; in experiment [2], less than 100 nM; in experiment [4], 100 to 500 nM. Further, in experiment [3], the “EGFR exon 19 deletion and T790M mutation IC50” value is given as “B (Group B compounds have an IC50 value for the indicated mutant between about 100 to about 500 nM)”.
